Assay results from ChEMBL document CHEMBL1697781, “Assessment of the health effects of chemicals in humans: II. Construction of an adverse effects database for QSAR modeling” (Curr Drug Discov Technol, 2004).

Key:
Conditions in all cases: human; call rule not given here
Hepatotoxicity [1] = experiment: FDA HLAED, serum glutamic oxaloacetic transaminase (SGOT) increase
Hepatotoxicity [2] = experiment: FDA HLAED, serum glutamic pyruvic transaminase (SGPT) increase
Hepatotoxicity [3] = experiment: FDA HLAED, alkaline phosphatase increase
Hepatotoxicity [4] = experiment: FDA HLAED, gamma-glutamyl transferase (GGT) increase
Hepatotoxicity [5] = experiment: FDA HLAED, lactate dehydrogenase (LDH) increase
Hepatotoxicity [6] = experiment: FDA HLAED, liver enzyme composite activity
Wherever GGT Increase - Index Value is given: reference of the scale not given here.
Wherever LDH Increase - Index Value is given: reference of the scale not given here.

Structure (SMILES) | SGOT Increase - Activity Score (Hepatotoxicity [1]) | SGOT Increase - Index Value (Hepatotoxicity [1]) | SGOT Increase - Number of Reports (Hepatotoxicity [1]) | SGPT Increase - Activity Score (Hepatotoxicity [2]) | SGPT Increase - Index Value (Hepatotoxicity [2]) | SGPT Increase - Number of Reports (Hepatotoxicity [2]) | Alkaline Phosphatase Increase - Activity Score (Hepatotoxicity [3]) | Alkaline Phosphatase Increase - Index Value (Hepatotoxicity [3]) | Alkaline Phosphatase Increase - Number of Reports (Hepatotoxicity [3]) | GGT Increase - Activity Score (Hepatotoxicity [4]) | GGT Increase - Index Value (Hepatotoxicity [4]) | GGT Increase - Number of Reports (Hepatotoxicity [4]) | LDH Increase - Activity Score (Hepatotoxicity [5]) | LDH Increase - Index Value (Hepatotoxicity [5]) | LDH Increase - Number of Reports (Hepatotoxicity [5]) | Composite Activity - Active (Hepatotoxicity [6]) | Composite Activity - Marginal (Hepatotoxicity [6]) | Composite Activity - Score (Hepatotoxicity [6]) | also measured
CO/N=C(\C(=O)N[C@@H]1C(=O)N2C(C(=O)OC(C)OC(C)=O)=C(COC(N)=O)CS[C@H]12)c1ccco1 (stereo partly specified) [CEFUROXIME AXETIL] | Inactive | 0 | < 4 | Inactive | 0 | < 4 | Inactive | 0 | < 4 | Inactive | 0 | < 4 | Inactive | 0 | < 4 | 0 | 0 | Inactive | –
CO/N=C(/C(=O)N[C@@H]1C(=O)N2C(C(=O)OC(C)OC(=O)C(C)(C)OC)=C(COC(N)=O)CS[C@H]12)c1ccco1 (stereo partly specified) [CEFUROXIME PIVOXETIL] | Inactive | 0 | < 4 | Inactive | 0 | < 4 | Inactive | 0 | < 4 | Inactive | 0 | < 4 | Inactive | 0 | < 4 | 0 | 0 | Inactive | –
CO/N=C(\C(=O)N[C@@H]1C(=O)N2C(C(=O)O)=C(COC(N)=O)CS[C@H]12)c1ccco1 [CEFUROXIME] | Inactive | 0.2 | < 4 | Inactive | 0 | < 4 | Inactive | 0 | < 4 | Inactive | 0 | < 4 | Inactive | 0 | < 4 | 0 | 0 | Inactive | –
CC(=O)OCC1=C(C(=O)O)N2C(=O)[C@@H](NC(=O)CSc3ccncc3)[C@H]2SC1 [CEPHAPIRIN] | Inactive | 0 | < 4 | Inactive | 0 | < 4 | Inactive | 0 | < 4 | Inactive | 0 | < 4 | Inactive | 0 | < 4 | 0 | 0 | Inactive | –
O=C(O)COCCN1CCN(C(c2ccccc2)c2ccc(Cl)cc2)CC1 (stereo unspecified) [CETIRIZINE] | Inactive | 1 | < 4 | Inactive | 1.3 | >= 4 | Inactive | 0 | < 4 | Inactive | 0.6 | < 4 | Inactive | 1 | < 4 | – | – | – | Composite Activity - Active (Hepatotoxicity [6]; Liver): 0; Composite Activity - Marginal (Hepatotoxicity [6]; Liver): 0; Composite Activity - Score (Hepatotoxicity [6]; Liver): Inactive
C[C@H](CCC(=O)O)[C@H]1CC[C@H]2[C@@H]3[C@H](O)C[C@@H]4C[C@H](O)CC[C@]4(C)[C@H]3CC[C@]12C [CHENODIOL] | Inactive | 0 | < 4 | Inactive | 0 | < 4 | Inactive | 0 | < 4 | Inactive | 0 | < 4 | Inactive | 0 | < 4 | 0 | 0 | Inactive | –
Cc1cc(C2CCCCC2)n(O)c(=O)c1 [CICLOPIROX] | Inactive | 0 | < 4 | Inactive | 0 | < 4 | Inactive | 0 | < 4 | Inactive | 0 | < 4 | Inactive | 0 | < 4 | 0 | 0 | Inactive | –
Nc1ccn(C[C@@H](CO)OCP(=O)(O)O)c(=O)n1.O.O [CIDOFOVIR] | Inactive | 46.1 | < 4 | Inactive | 0 | < 4 | Active | 92.2 | < 4 | Inactive | 0 | < 4 | Inactive | 46.1 | < 4 | 1 | 0 | Inactive | –
CCn1nc(C(=O)O)c(=O)c2cc3c(cc21)OCO3 [CINOXACIN] | Active | 16.9 | >= 4 | Active | 15.1 | >= 4 | Inactive | 0 | < 4 | Inactive | 0 | < 4 | Inactive | 0 | < 4 | 2 | 0 | Active | –
O=C(O)c1cn(C2CC2)c2cc(N3CCNCC3)c(F)cc2c1=O [CIPROFLOXACIN] | Marginally Active | 3.1 | >= 4 | Inactive | 2.1 | >= 4 | Inactive | 2.3 | >= 4 | Inactive | 0.8 | >= 4 | Inactive | 0.9 | >= 4 | – | – | – | Composite Activity - Active (Hepatotoxicity [6]; Liver): 0; Composite Activity - Marginal (Hepatotoxicity [6]; Liver): 1; Composite Activity - Score (Hepatotoxicity [6]; Liver): Inactive
COc1cc(N)c(Cl)cc1C(=O)NC1CCN(CCCOc2ccc(F)cc2)CC1OC (stereo unspecified) [CISAPRIDE] | Inactive | 0.3 | >= 4 | Inactive | 0.4 | >= 4 | Inactive | 0.2 | >= 4 | Inactive | 0.2 | < 4 | Inactive | 0.1 | < 4 | 0 | 0 | Inactive | –
Nc1nc(Cl)nc2c1ncn2[C@H]1C[C@H](O)[C@@H](CO)O1 [CLADRIBINE] | Inactive | 16.2 | < 4 | Inactive | 16.2 | < 4 | Inactive | 16.2 | < 4 | Inactive | 8.1 | < 4 | Inactive | 0 | < 4 | 0 | 0 | Inactive | –
